Data taken from patent US10253002B2, “Compounds and methods of treating infections” (Neoculi Pty Ltd., priority 2013, dated 2019).
Values after ≈ are worked out from the molar mass of the structure shown. Where two headings read alike, the source gives them in different places.

System: methicillin-resistant Staphylococcus aureus (MRSA)
Assay: Broth microdilution MIC (CLSI), Example 1
Assay type: cell-based
Protocol: Cation adjusted Mueller Hinton Broth (CAMHB) was prepared using 100 mL sterile Mueller Hinton broth (pH adjusted). To each 100 mL volume, 125 μL of calcium stock solution (10 mg Ca^2+ per ml) and 43 μL magnesium stock solution (10 mg Mg^2+ per mL) was aseptically added. Sufficient broth is made up for daily use, with unused portions being stored at 4° C. overnight.
Potency was described as 1000 mg/g or 100%. The powder was dissolved in 10 mL DMSO and 1 mL volumes were aliquoted into eppendorf tubes and stored at −80° C.
For Staphylococcus aureus, a working solution of 256 μg/mL was prepared by diluting stock solutions as described above 1:100 in CAMHB (100 μL into 9.9 mL).
Serial dilutions were prepared in 96 well plates were set up in a safety cabinet according to methods standard in the art. Briefly: 90 μL of the working antibiotic solution was added to each well in Column 12 of the plate, and mixed well, before 90 μL was transferred to column 11. The solutions were mixed again, and then transferred to the next column as before, continuing the dilutions through to column 3. Mixing the well requires the pick up and expulsion of 90 μL in each well 3-4 times before picking up and transferring the 90 μL to the next well. […] The trays were set up as follows: 2 strains were tested in duplicate in one tray, such that strain 1 was located in rows A to D, strain 2 was located in rows E to H, etc.
Fresh cultures of bacteria were prepared for testing on sheep blood agar (SBA), and overnight incubation at 37° C. as follows; 2-3 colonies of each strain in 7 mL sterile saline, and the OD600 measured as an indication of the density (approx. […] or 0.5 McFarland Standard). The bacterial suspension was adjusted to a final absorbance of 0.08 to 0.100, using saline to achieve correct density, and as the blank. Within 15 minutes of preparation, the adjusted bacterial suspension with sterile saline 1:20 (1 mL into 19 mL sterile saline) to achieve a final bacterial concentration of 4 to 5×10^6 CFU/mL. The bacterial solution was placed into a sterile trough and 10 μL of bacterial solution added into wells 2 through to 12 on each required row (dilution of 1:10, with final concentration of bacteria in wells=5×10^5 CFU/mL). The tray was sealed and incubated at 37° C. for 18-24 h. The purity of bacterial suspension was confirmed by streaking out 50 μL of the 1:20 dilution onto a SBA plate, which was incubated for 37° C. for 18 h and examined. Viable counts were carried out to ensure that the correct concentration of bacteria and been added to the wells. The diluted bacterial solution (4 to 5×10^6 CFU/mL) was diluted 1:10 downwards by adding 100 μL to 900 μL of sterile saline in sterile tubes, and the serial dilutions continued 1:10 for 5 tubes. 100 μL (4-5 drops) of the 4th and 5th dilutions (tube 4=105 and tube 5=10^6 CFU/ml) was plated around in duplicate on pre-dried PCA agar plates and incubated at 37° C. overnight. The following day the number of colonies on the plates was counted and the average count in 100 μL obtained. The study was multiplied by 10 to obtain a viable bacterial count per mL.
Minimum inhibitory concentrations (μg/mL) were determined using the broth microdilution method recommended by the Clinical and Laboratory Standards Institute (CLSI) (Methods for Dilution Antimicrobial Susceptibility Tests for Bacteria That Grow Aerobically; Approved Standard—Seventh Edition. CLSI M7-A7, 2006; Performance Standards for Antimicrobial Disk and Dilution Susceptibility Tests for Bacteria Isolated from Animals; Approved Standard—Second Edition. CLSI M31-A2, 2002; Performance Standards for Antimicrobial Susceptibility Testing; CLSI M2-A9, 2006).
MIC breakpoints were determined by visual assessment and then confirmed using an ELISA plate reader, measuring absorbance levels at 450 nm.

[1] = Staphylococcus aureus, MRSA, MRSA 616, Test 1, read-out: MIC
[2] = Staphylococcus aureus, MRSA, MRSA 747, Test 1, read-out: MIC

CC1(C)S[C@@H]2[C@H](NC(=O)[C@H](N)c3ccccc3)C(=O)N2[C@H]1C(=O)O [Ampicillin] was tested, and the MIC90 (MRSA, 21 isolates) was > 128 µg/mL, the MIC90 (MRSA, Staphylococcus aureus isolates of Table 3, Test 1, read-out: MIC90) was > 128 µg/mL and the MIC90 (Staphylococcus aureus isolates of Table 3, Test 2) was >128 µg/mL. It also gave an MIC (Staphylococcus aureus, ATCC 29213 / MRSA, S. aureus strain ATCC 29213, read-out: MIC of control strain (internal quality control)) of 2 µg/mL, an MIC (Staphylococcus aureus, ATCC 29213 / MRSA, Staph. aureus ATCC 29213, Test 1, read-out: MIC) of 2 µg/mL (≈ 5.72 µM) and an MIC (Staphylococcus aureus, ATCC 29213 / MRSA, Staph. aureus ATCC 29213, Test 2, read-out: MIC) of 2 µg/mL (≈ 5.72 µM). For the same compound, the MIC (Staphylococcus aureus, MRSA, 21 isolates, read-out: MIC mode) was > 128 µg/mL, the MIC (Staphylococcus aureus, MRSA, MRSA 516, Test 1, read-out: MIC) was 32 µg/mL (≈ 91.6 µM) and the MIC (Staphylococcus aureus, MRSA, MRSA 516, Test 2, read-out: MIC) was 32 µg/mL (≈ 91.6 µM). For the same compound, the MIC (Staphylococcus aureus, MRSA, MRSA 570, Test 1, read-out: MIC) was > 128 µg/mL, the MIC (Staphylococcus aureus, MRSA, MRSA 570, Test 2, read-out: MIC) was > 128 µg/mL and the MIC (Staphylococcus aureus, MRSA, MRSA 580, Test 1, read-out: MIC) was > 128 µg/mL. The MIC (Staphylococcus aureus, MRSA, MRSA 580, Test 2, read-out: MIC) was > 128 µg/mL, the MIC (Staphylococcus aureus, MRSA, MRSA 606, Test 1, read-out: MIC) was 32 µg/mL (≈ 91.6 µM) and the MIC (Staphylococcus aureus, MRSA, MRSA 606, Test 2, read-out: MIC) was 32 µg/mL (≈ 91.6 µM). The MIC (Staphylococcus aureus, MRSA, MRSA 610, Test 1, read-out: MIC) was 128 µg/mL (≈ 366 µM), the MIC (Staphylococcus aureus, MRSA, MRSA 610, Test 2, read-out: MIC) was 128 µg/mL (≈ 366 µM) and the MIC [1] was 64 µg/mL (≈ 183 µM). For the same compound, the MIC (Staphylococcus aureus, MRSA, MRSA 616, Test 2, read-out: MIC) was 64 µg/mL (≈ 183 µM), the MIC (Staphylococcus aureus, MRSA, MRSA 622, Test 1, read-out: MIC) was 64 µg/mL (≈ 183 µM) and the MIC (Staphylococcus aureus, MRSA, MRSA 622, Test 2, read-out: MIC) was 64 µg/mL (≈ 183 µM). For the same compound, the MIC (Staphylococcus aureus, MRSA, MRSA 698, Test 1, read-out: MIC) was 64 µg/mL (≈ 183 µM), the MIC (Staphylococcus aureus, MRSA, MRSA 698, Test 2, read-out: MIC) was 64 µg/mL (≈ 183 µM) and the MIC (Staphylococcus aureus, MRSA, MRSA 713, Test 1, read-out: MIC) was > 128 µg/mL. For the same compound, the MIC (Staphylococcus aureus, MRSA, MRSA 713, Test 2, read-out: MIC) was > 128 µg/mL, the MIC (Staphylococcus aureus, MRSA, MRSA 718, Test 1, read-out: MIC) was > 128 µg/mL and the MIC (Staphylococcus aureus, MRSA, MRSA 718, Test 2, read-out: MIC) was > 128 µg/mL. The MIC (Staphylococcus aureus, MRSA, MRSA 728, Test 1, read-out: MIC) was 64 µg/mL (≈ 183 µM), the MIC (Staphylococcus aureus, MRSA, MRSA 728, Test 2, read-out: MIC) was 64 µg/mL (≈ 183 µM) and the MIC (Staphylococcus aureus, MRSA, MRSA 734, Test 1, read-out: MIC) was > 128 µg/mL. For the same compound, the MIC (Staphylococcus aureus, MRSA, MRSA 734, Test 2, read-out: MIC) was > 128 µg/mL, the MIC (Staphylococcus aureus, MRSA, MRSA 741, Test 1, read-out: MIC) was 8 µg/mL (≈ 22.9 µM) and the MIC (Staphylococcus aureus, MRSA, MRSA 741, Test 2, read-out: MIC) was 8 µg/mL (≈ 22.9 µM). The MIC [2] was > 128 µg/mL, the MIC (Staphylococcus aureus, MRSA, MRSA 747, Test 2, read-out: MIC) was > 128 µg/mL and the MIC (Staphylococcus aureus, MRSA, MRSA 773, Test 1, read-out: MIC) was 128 µg/mL (≈ 366 µM). For the same compound, the MIC (Staphylococcus aureus, MRSA, MRSA 773, Test 2, read-out: MIC) was 64 µg/mL (≈ 183 µM), the MIC (Staphylococcus aureus, MRSA, MRSA 778, Test 1, read-out: MIC) was > 128 µg/mL and the MIC (Staphylococcus aureus, MRSA, MRSA 778, Test 2, read-out: MIC) was > 128 µg/mL. For the same compound, the MIC (Staphylococcus aureus, MRSA, MRSA 786, Test 1, read-out: MIC) was 32 µg/mL (≈ 91.6 µM), the MIC (Staphylococcus aureus, MRSA, MRSA 786, Test 2, read-out: MIC) was 64 µg/mL (≈ 183 µM) and the MIC (Staphylococcus aureus, MRSA, MRSA 787, Test 1, read-out: MIC) was > 128 µg/mL. For the same compound, the MIC (Staphylococcus aureus, MRSA, MRSA 787, Test 2, read-out: MIC) was > 128 µg/mL, the MIC (Staphylococcus aureus, MRSA, MRSA 815, Test 1, read-out: MIC) was 64 µg/mL (≈ 183 µM) and the MIC (Staphylococcus aureus, MRSA, MRSA 815, Test 2, read-out: MIC) was 64 µg/mL (≈ 183 µM). The MIC (Staphylococcus aureus, MRSA, MRSA 823, Test 1, read-out: MIC) was > 128 µg/mL, the MIC (Staphylococcus aureus, MRSA, MRSA 823, Test 2, read-out: MIC) was > 128 µg/mL and the MIC (Staphylococcus aureus, MRSA, MRSA 844, Test 1, read-out: MIC) was 128 µg/mL (≈ 366 µM). For the same compound, the MIC (Staphylococcus aureus, MRSA, MRSA 844, Test 2, read-out: MIC) was 128 µg/mL (≈ 366 µM) and the MIC50 (Staphylococcus aureus, MRSA, 21 isolates) was 64 µg/mL (≈ 183 µM).

Compound N=C(N/N=C/c1ccc(Cl)cc1)N/N=C/c1ccc(Cl)cc1 [NCL812, 1,3-bis[(E)-(4-chlorophenyl)methyleneamino]guanidine] has an MIC [1] of 8 µg/mL (≈ 23.9 µM) and an MIC [2] of 8 µg/mL (≈ 23.9 µM).
